From the NIST ThermoML archive (doi:10.1021/je700714m)
± gives the expanded uncertainty stated by the source.

Tests used:
[1] = for mass density / speed of sound / viscosity: 100 kPa, Liquid
[2] = refractive index (Na D-line) (dimensionless); conditions: 101.33 kPa, Liquid
[3] = xn = mol fraction of the nth substance listed; conditions: x2 = 0; for mass density / speed of sound / viscosity: 100 kPa, Liquid
[4] = refractive index (Na D-line) (dimensionless); xn = mol fraction of the nth substance listed; conditions: 100 kPa, Liquid, x2 = 0

SMILES	surface tension liquid-gas ([1]; 303.15 K) [mN/m]	mass density ([1]; 303.15 K) [kg/m3]	speed of sound ([1]; 303.15 K) [m/s]	viscosity ([1]; 303.15 K) [mPa·s]	surface tension liquid-gas ([1]; 313.15 K) [mN/m]	mass density ([1]; 313.15 K) [kg/m3]	viscosity ([1]; 313.15 K) [mPa·s]	surface tension liquid-gas ([1]; 323.15 K) [mN/m]	mass density ([1]; 323.15 K) [kg/m3]	speed of sound ([1]; 323.15 K) [m/s]	viscosity ([1]; 323.15 K) [mPa·s]	refractive index ([2]; 323.15 K)	other results
COc1ccc(C=O)cc1 [4-methoxybenzaldehyde]	99.08 ± 4.9	1125.5 ± 4.8	1684 ± 220	3.275 ± 0.29	96.11 ± 4.8	1119.1 ± 5.1	2.97 ± 0.27	94.1 ± 4.7	1114.1 ± 5.5	1571 ± 200	2.442 ± 0.22	1.5463 ± 0.0012	speed of sound ([1]; 313.15 K): 1631 ± 210 m/s; refractive index ([2]; 303.15 K): 1.5571 ± 0.0012; refractive index ([2]; 313.15 K): 1.5488 ± 0.0012
Clc1ccccc1 [chlorobenzene]	33.6 ± 1.9	1102 ± 4.7	1220 ± 170	0.7105 ± 0.074	32.3 ± 1.8	1080 ± 4.9	0.6914 ± 0.072	31.26 ± 1.8	1067.4 ± 5.2	695 ± 120	0.5543 ± 0.06	1.548 ± 0.0012	–
Clc1ccccc1 [chlorobenzene] + COc1ccc(C=O)cc1	–	–	–	–	–	–	–	–	–	–	–	–	surface tension liquid-gas ([3]; 303.15 K): 33.6 ± 1.9 mN/m; mass density ([3]; 303.15 K): 1102 ± 4.7 kg/m3; speed of sound ([3]; 303.15 K): 1220 ± 170 m/s; viscosity ([3]; 303.15 K): 0.7105 ± 0.074 mPa·s; surface tension liquid-gas ([3]; 313.15 K): 32.3 ± 1.8 mN/m; mass density ([3]; 313.15 K): 1080 ± 4.9 kg/m3; viscosity ([3]; 313.15 K): 0.6914 ± 0.072 mPa·s; surface tension liquid-gas ([3]; 323.15 K): 31.26 ± 1.8 mN/m; mass density ([3]; 323.15 K): 1067.4 ± 5.2 kg/m3; speed of sound ([3]; 323.15 K): 695 ± 120 m/s; viscosity ([3]; 323.15 K): 0.5543 ± 0.06 mPa·s; refractive index ([4]; 303.15 K): 1.559 ± 0.0012; refractive index ([4]; 313.15 K): 1.5509 ± 0.0012; refractive index ([4]; 323.15 K): 1.548 ± 0.0012
